# Patent US11560370B1, “5-membered heteroaryl carboxamide compounds for treatment of HBV” (Assembly Biosciences, Inc., priority 2018, dated 2023)
# Where two headings read alike, the source gives them in different places.
# Test system: HBV
# Assay: Viral production from HepAD38 cells, viral load by qPCR of HBV core sequence
# Format: cell-based
# Conditions: 5 days, supernatant HBV DNA by qPCR, read-out: Viral Load EC50 Activity range
# Experimental: Assay Measuring Activity of Test Compounds on Viral Production from HepAD38 Cells
# HepAD38 cells grown in a T-150 flask (Corning, cat #: 430825) with Growth Medium (DMEM/F12 (1:1) (Hyclone, cat #: SH30023.02), 1× Pen/Strep (Invitrogen, cat #: 15140-122), 10% FBS (Tissue Culture Biologics, cat #: 101), 250 μg/mL G418 (Alfa Aesar, cat #: J62671), 1 μg/mL Tetracycline (Teknova, cat #: T3320)) were detached with 0.25% trypsin-EDTA to (Invitrogen, cat #: 25200-056). Tetracycline-free treatment medium (15 mL DMEM/F12 (1:1) 1× Pen/step, with 2% FBS, Tet-system approved (Clontech, cat #: 631106) were then added to mix, transferred into a 50 ml conical tube (Falcon, cat #: 21008-918,) and spun at 1300 rpm for 5 min. Pelleted cells were then re-suspended/washed with 50 mL of 1×DPBS (Invitrogen, cat #: 14190-136) 2 times and 50 mL treatment medium twice. HepAD38 cells were then re-suspended with 10 mL of treatment medium, syringed and counted. Wells of 96-well clear bottom TC plate (Corning, cat #: 3904,) were seeded at 50,000 cells/well in 180 μL of treatment medium, and 20 μL of either 10% DMSO (Sigma, cat #: D4540) as controls or a 10× solution of test compounds in 10% DMSO in treatment media was added for a final compound concentration starting at 10 μM, and plates were incubated in 5% CO2 incubator at 37° C. for 5 days.
# Subsequently viral load production was assayed by quantitative PCR (qPCR) of the HBV core sequence. PCR reaction mixture containing forward primers HBV-f 5′-CTGTGCCTTGGGTGGCTTT-3′ (IDT DNA), Reverse primers HBV-r 5′-[…]-3′ (IDT DNA), Fluorescent TaqMan™ Probes HBV-probe 5′-FAM/AGCTCCAAA/ZEN/[…]/3IABkFQ-3′ (IDT DNA), 10 μL/well of PerfeCTa® qPCR ToughMix® (Quanta Biosciences, Cat #: 95114-05K), and 6 μL/well of DEPC water (Alfa Aesar, cat #: J62087) was prepared. […] of supernatant was added to 16 μL of the reaction mixture in a qPCR plate (Applied Biosytems, Cat #: 4309849), sealed with a film (Applied Biosystems, Cat #: 4311971), centrifuged for a few seconds, and subsequently run on an Applied Biosystems VIIA7. The PCR mixture was incubated at 45° C. for 5 min, then 95° C. for 10 min, followed by 40 cycles of 10 seconds at 95° C. and 20 seconds at 60° C. Viral load was quantified against known HBV DNA standards by using ViiA™ 7 Software. Viral load in the supernatant from wells with treated cells were compared against viral load in supernatant from DMSO control wells (>3 per plate). Cell viability assay was performed with CellTiter-Glo Luminescent Cell Viability Assay (Promega, cat #: G7573) with modification. Mixed appropriate amount of CellTiter-Glo (CTG) 1×DPBS in a 1:1 ratio, added 100 uL of the mixture to each well followed completely removal of all supernatant in each well without touching cell surface. Incubated the plate at room temperature for 10 min on an orbital shaker, and then read the plate with a plate reader (TECAN M1000 or Envision). EC50 or CC50 values were calculated through curve-fitting of the four-parameter nonlinear-logistic-regression model (GraphPad Prism or Dotmatics). CC50 values were all >10 μM.
# [1] = Hepatitis B virus, HePAD38, 120 h
Structure (SMILES),EC50 [1] [nM],EC50 [nM]
"COc1ccc([C@H]2CC[C@H](c3nn(C)c(N)c3C(=O)Nc3ccc(F)c(Cl)c3)C2)cc1 [AIA-003-B, 5-amino-N-(3-chloro-4-fluorophenyl)-3-((1S,3S)-3-(4-methoxyphenyl)cyclopentyl)-1-methyl-1H-pyrazole-4-carboxamide]",< 100,
"COc1ccc([C@@H]2CC[C@H](c3nn(C)c(N)c3C(=O)Nc3ccc(F)c(Cl)c3)C2)cc1 [AIA-003-C, 5-Amino-N-(3-chloro-4-fluorophenyl)-3-((1S,3R)-3-(4-methoxyphenyl)cyclopentyl)-1-methyl-1H-pyrazole-4-carboxamide]",100 to 500,
"COc1ccc([C@@H]2CC[C@@H](c3nn(C)c(N)c3C(=O)Nc3ccc(F)c(Cl)c3)C2)cc1 [AIA-003-D, 5-amino-N-(3-chloro-4-fluorophenyl)-3-((1R,3R)-3-(4-methoxyphenyl)cyclopentyl)-1-methyl-1H-pyrazole-4-carboxamide]",< 100,
Cn1nc(C2CC3CN(C(=O)OC(C)(C)C)CC3C2)c(C(=O)Nc2ccc(F)c(Cl)c2)c1N (stereo not shown) [AIA-005],,< 100
Cn1nc(C2CC3CNCC3C2)c(C(=O)Nc2ccc(F)c(Cl)c2)c1N (stereo not shown) [AIA-006],,500 to 10000
CC(=O)N1CC2CC(c3nn(C)c(N)c3C(=O)Nc3ccc(F)c(Cl)c3)CC2C1 (stereo not shown) [AIA-007],,< 100
"Cn1nc(C2CC3CC(C)(O)CC3C2)c(C(=O)Nc2ccc(F)c(Cl)c2)c1N (stereo not shown) [AIA-011, 5-Amino-N-(3-chloro-4-fluorophenyl)-3-(5-hydroxy-5-methyloctahydropentalen-2-yl)-1-methyl-1H-pyrazole-4-carboxamide]",< 100,
"CCN(CC)C1CC2CC(c3nn(C)c(N)c3C(=O)Nc3ccc(F)c(Cl)c3)CC2C1 (stereo not shown) [AIA-012, 5-Amino-N-(3-chloro-4-fluorophenyl)-3-(5-(diethylamino)octahydropentalen-2-yl)-1-methyl-1H-pyrazole-4-carboxamide]",100 to 500,
"Cn1nc(C2CC3CC(N4CCC4)CC3C2)c(C(=O)Nc2ccc(F)c(Cl)c2)c1N (stereo not shown) [AIA-013, 5-Amino-3-(5-(azetidin-1-yl)octahydropentalen-2-yl)-N-(3-chloro-4-fluorophenyl)-1-methyl-1H-pyrazole-4-carboxamide]",100 to 500,
Cn1nc(C2CC3CC(C(=O)O)CC3C2)c(C(=O)Nc2ccc(F)c(Cl)c2)c1N (stereo not shown) [AIA-014],,< 100
Cn1nc(C2CC3CC(C(N)=O)CC3C2)c(C(=O)Nc2ccc(F)c(Cl)c2)c1N (stereo not shown) [AIA-015],,< 100
"CNC(=O)C1CC2CC(c3nn(C)c(N)c3C(=O)Nc3ccc(F)c(Cl)c3)CC2C1 (stereo not shown) [AIA-016, 5-Amino-N-(3-chloro-4-fluorophenyl)-1-methyl-3-(5-(methylcarbamoyl)octahydropentalen-2-yl)-1H-pyrazole-4-carboxamide]",< 100,
CCOC(=O)C=C1CC2CC(c3nn(C)c(N)c3C(=O)Nc3ccc(F)c(Cl)c3)CC2C1 (stereo not shown) [AIA-017],,< 100
CCOC(=O)CC1CC2CC(c3nn(C)c(N)c3C(=O)Nc3ccc(F)c(Cl)c3)CC2C1 (stereo not shown) [AIA-018],,< 100
Cn1nc(C2CC3CC(CCO)CC3C2)c(C(=O)Nc2ccc(F)c(Cl)c2)c1N (stereo not shown) [AIA-019],,< 100
"CN(C)C(=O)CC1CC2CC(c3nn(C)c(N)c3C(=O)Nc3ccc(F)c(Cl)c3)CC2C1 (stereo not shown) [AIA-020, 5-Amino-N-(3-chloro-4-fluorophenyl)-3-(5-(2-(dimethylamino)-2-oxoethyl)octahydropentalen-2-yl)-1-methyl-1H-pyrazole-4-carboxamide]",< 100,
"Cn1nc(C2CC3CC(CC(N)=O)CC3C2)c(C(=O)Nc2ccc(F)c(Cl)c2)c1N (stereo not shown) [AIA-021, 5-Amino-3-(5-(2-amino-2-oxoethyl)octahydropentalen-2-yl)-N-(3-chloro-4-fluorophenyl)-1-methyl-1H-pyrazole-4-carboxamide]",< 100,
COC(=O)N1CC2CC(c3nn(C)c(N)c3C(=O)Nc3ccc(F)c(Cl)c3)CC2C1 (stereo not shown) [AIA-022],< 100,
"CNC(=O)N1CC2CC(c3nn(C)c(N)c3C(=O)Nc3ccc(F)c(Cl)c3)CC2C1 (stereo not shown) [AIA-023, 5-(5-Amino-4-(3-chloro-4-fluorophenylcarbamoyl)-1-methyl-1H-pyrazol-3-yl)-N-methylhexahydrocyclopenta[c]pyrrole-2(1H)-carboxamide]",< 100,

Structure (SMILES),EC50 [1] [nM],EC50 [nM]
"Cn1nc(C2CC3CN(S(C)(=O)=O)CC3C2)c(C(=O)Nc2ccc(F)c(Cl)c2)c1N (stereo not shown) [AIA-024, 5-Amino-N-(3-chloro-4-fluorophenyl)-1-methyl-3-(2-(methylsulfonyl)octa hydrocyclopenta[c]pyrrol-5-yl)-1H-pyrazole-4-carboxamide]",< 100,
"Cn1nc(C2CC3CN(C(=O)N4CCCC4)CC3C2)c(C(=O)Nc2ccc(F)c(Cl)c2)c1N (stereo not shown) [AIA-025, 5-Amino-N-(3-chloro-4-fluorophenyl)-1-methyl-3-(2-(pyrrolidine-1-carbonyl)octahydrocyclopenta[c]pyrrol-5-yl)-1H-pyrazole-4-carboxamide]",< 100,
Cn1nc(C2CC3CC(C#N)CC3C2)c(C(=O)Nc2ccc(F)c(Cl)c2)c1N (stereo not shown) [AIA-027],,< 100
CSC1CC2CC(c3nn(C)c(N)c3C(=O)Nc3ccc(F)c(Cl)c3)CC2C1 (stereo not shown) [AIA-028],,< 100
"CCSC1CC2CC(c3nn(C)c(N)c3C(=O)Nc3ccc(F)c(Cl)c3)CC2C1 (stereo not shown) [AIA-029, 5-Amino-N-(3-chloro-4-fluorophenyl)-3-(5-(ethylthio)octahydropentalen-2-yl)-1-methyl-1H-pyrazole-4-carboxamide]",< 100,
Cn1nc(C2CC3CC(S(C)(=O)=O)CC3C2)c(C(=O)Nc2ccc(F)c(Cl)c2)c1N (stereo not shown) [AIA-030],,< 100
"CCS(=O)(=O)C1CC2CC(c3nn(C)c(N)c3C(=O)Nc3ccc(F)c(Cl)c3)CC2C1 (stereo not shown) [AIA-031, 5-Amino-N-(3-chloro-4-fluorophenyl)-3-(5-(ethylsulfonyl)octahydropentalen-2-yl)-1-methyl-1H-pyrazole-4-carboxamide]",< 100,
Cn1nc([C@@H]2CC3C/C(=N/O)C[C@@H]3C2)c(C(=O)Nc2ccc(F)c(Cl)c2)c1N (stereo partly shown) [AIA-032-A],,< 100
Cn1nc([C@H]2CC3C/C(=N/O)C[C@@H]3C2)c(C(=O)Nc2ccc(F)c(Cl)c2)c1N (stereo partly shown) [AIA-032-B],,< 100
Cn1nc(C2CC3CNC(=O)CC3C2)c(C(=O)Nc2ccc(F)c(Cl)c2)c1N (stereo not shown) [AIA-033],,< 100
"Cn1nc(C2CC3CC(N4CCCC4)CC3C2)c(C(=O)Nc2ccc(F)c(Cl)c2)c1N (stereo not drawn) [AIA-040, 5-Amino-N-(3-chloro-4-fluorophenyl)-1-methyl-3-(5-(pyrrolidin-l-yl)octahydropentalen-2-yl)-1H-pyrazole-4-carboxamide]",< 100,
"Cn1nc(C2CC3CC(N4CCOCC4)CC3C2)c(C(=O)Nc2ccc(F)c(Cl)c2)c1N (stereo not shown) [AIA-041, 5-Amino-N-(3-chloro-4-fluorophenyl)-1-methyl-3-(5-morpholinooctahydropentalen-2-yl)-1H-pyrazole-4-carboxamide]",< 100,
Cn1nc(C2CC3CC(NS(C)(=O)=O)CC3C2)c(C(=O)Nc2ccc(F)c(Cl)c2)c1N (stereo not shown) [AIA-042],,< 100
CN(C1CC2CC(c3nn(C)c(N)c3C(=O)Nc3ccc(F)c(Cl)c3)CC2C1)S(C)(=O)=O (stereo not shown) [AIA-043],,< 100
Cn1nc(C2CC3CC(N4CCCS4(=O)=O)CC3C2)c(C(=O)Nc2ccc(F)c(Cl)c2)c1N (stereo not shown) [AIA-044],,< 100
Cn1nc(C2CC3CC(N4CCOC4=O)CC3C2)c(C(=O)Nc2ccc(F)c(Cl)c2)c1N (stereo not shown) [AIA-046],,< 100
Cn1nc(C2CC3CC(N4CCNC4=O)CC3C2)c(C(=O)Nc2ccc(F)c(Cl)c2)c1N (stereo not shown) [AIA-047],,< 100
"Cn1nc(C2CC3CC(n4cccn4)CC3C2)c(C(=O)Nc2ccc(F)c(Cl)c2)c1N (stereo not shown) [AIA-048, 3-(5-(1H-Pyrazol-1-yl)octahydropentalen-2-yl)-5-amino-N-(3-chloro-4-fluorophenyl)-1-methyl-1H-pyrazole-4-carboxamide]",< 100,
